# According to patent US20060183803A1, “L-aspartic acid for the treatment of assorted health problems” (Instituto del Metabolismo Celular, S.L., priority 2005, published 2006):
# Legend:
# [1] = Clinical trial of L-aspartic acid plus starch-free diet in obesity and overweight
# [2] = Tobacco, caffeine and other drug addictions in patients under treatment; format: in vivo, human
# Source text: For the treatment of tobacco addiction, we found it advisable to increase the frequency of the intake of L-aspartic acid to 10-12 small doses per day in order to control the anxiety to smoke.
# In our clinical trials, some of our patients were addicted to some soft drugs like coffee (caffeine), tobacco (nicotine), Prozac (fluoxetin), Trankimazin (alprazolam), Tranxilium (di-potasium chloride-acetate). In general, they were able to reduce their consumption of these materials while undergoing our recommended treatments. […] In tobacco release addiction programs, some small supplementary doses (0.5-1.0 g. every 30-45 minutes) may be necessary during the day to stop the patient's anxiety.
# Smoking patients who expressed a desire to stop were advised to prepare a small bottle of water (or even fruit juice) with some small spoonfuls of L-aspartic acid, and to drink some small swigs of this throughout the day to control their anxiety levels.
# [3] = Clinical trial in non-diabetic patients with blood cholesterol excess; format: in vivo, human; details: more than 200 non-diabetic patients, four daily takings of 1-3 grams
# Source text: These clinical trials included a group of more than 200 non-diabetic patients with blood cholesterol excesses. The basic treatment (i.e., four daily […] of 1-3 grams of L-aspartic acid and the elimination of starches from one's diet) for these patients was the same as that described above, plus: (i) complete elimination of carbohydrates from the diet, (ii) inclusion of unsaturated and polyunsaturated fat in all meals, and (iii) inclusion in some meals of cholesterol.
# [4] = Digestion problems of patients under treatment; format: in vivo, human; details: more than three hundred patients, after two or three weeks
# [5] = Clinical trial in patients suffering from hypertension; format: in vivo, human
# Source text: Clinical trials for 250 patients suffering from hypertension (156 men and 94 women, with ages between 19 and 70 years) are reported below.
# A summary of our clinical results are shown in Table 3 for average daily L-aspartic acid consumptions of 12 g/day (four daily 3 g doses).
# [6] = Sexual potency problems of male patients under treatment; format: in vivo, human; details: after 2-3 months of treatment
# Source text: A number of the male patients in our trails initially complained of erectile disfunction and other sexual performance problems. […] These improvements were most significant for those patients who had reported problems of erectile disfunction; with these patients generally reporting improvements in all aspects of their sexual activities, including their sexual appetency and ability to ejaculate.
# [7] = Migraines, headaches and menstrual pains reported by patients under treatment; format: in vivo, human; details: improvement in first or second month, in some cases several months
# [8] = Patients with high blood uric acid levels under treatment; format: in vivo, human; details: sixty patients
# Protocol: Sixty patients participating in this program had high blood uric acid levels.
# Our treatment achieved a significant decrease in the uric acid levels of these patients: from initial levels of between 7.1 and 9.4 mg/100 mL to, after usually 2-4 months treatment, normal values.
# [9] = Ketosis in patients under treatment
# [10] = Clinical trial in type-1 and type-2 diabetes patients; format: in vivo, human
# Source text: There is, in principle, no special protocol for patients suffering from diabetes (both types), which is different from the general one described above. Type-2 diabetes is usually associated with overweight and/or excess of fat in the body, so its protocol should not differ substantially from the general one presented above. With regard to type-I diabetes, since this treatment allows cells to consume less glucose, as it enhances their capacity to consume fat, it can reduce one's insulin dependence.
# Diabetic patients were told to take their values of blood glucose regularly (three or four times a day during the first months) until they achieved good blood glucose values. During the treatment, when it was seen that blood glucose levels were decreasing, the patients were instructed to reduce the doses of drugs or insulin, until removing them completely, to avoid hypoglycemia.
# Our clinical trails involved a group of 200 patients, […]. The patients were divided into four groups: (i) Type-2 diabetes patients who had been recently diagnosed and were not yet taking any oral drugs or insulin treatments, (ii) Type-2 diabetes patients who had been taking oral drugs (usually sulphonylurea derivatives) for up to several years, (iii) Type-2 diabetes patients who were suffering for many years, and had started their treatment with oral drugs and, after several years, progressed to insulin injections, which were eventually being supplemented with oral drugs, and (iv) Type-1 diabetes patients, all of them under insulin treatment. Most of these patients were also suffering from other related health problems (e.g., overweight or obesity, hypertension, sexual potency problems).
# The basic treatment guidelines for these diabetes patients were essentially the same as that which was indicated above for our obesity and overweight patients (i.e., four daily takings of 1-3 grams of L-aspartic acid and the elimination of starches from one's diet).
smiles,measurement,setting,value
N[C@@H](CC(=O)O)C(=O)O [L-aspartic acid],safety of prolonged treatment (blood chemical analysis),[1]; duration as long as one wants,without danger of intoxication
same,fat burnt per day,"[1]; estimated from water unloaded, ratio 14/18",200 to 600 g
same,biochemical and hematological parameters in periodic blood analysis,"[1]; human, in vivo",consistently showed improvements
same,side effect from reduced drinking,[1]; in some cases,hard stools and difficulty with bowel movements
same,weight loss outcome,"[1]; more than 1,500 patients, ages 18 to 83",Successful weight losses in all cases
same,usual weight loss rate,"[1]; obesity patients, also printed as 11-13 pounds per month",5-6 kg per month
same,"carbohydrate abstinence syndrome (weakness, feeling sick)",[1]; on elimination of carbohydrate-rich foods,only during their first two weeks of participation
same,fat as percentage of body mass after treatment,"[1]; person (FIG. 5), 41.1% at start, after 290 days",23%
same,body fat mass after treatment,"[1]; person (FIG. 5), 53.5 kg of fat at start, after 290 days",19.1 kg
same,body weight after treatment,"[1]; person (FIG. 5), 130 kg at start, after 290 days of treatment",83 kg
same,weight reduction,"[1]; person (FIG. 5), after 290 days of treatment",47 kg
same,change in percentage of body fat,[1]; versus conventional hypocaloric diets,significant reductions in our patients' percentages of body fat
same,"anxiety, hunger pangs or energy loss during treatment",[1]; without sedative or stimulant drug,"no significant anxiety, hunger pangs or energy loss"
same,daily number of cigarettes smoked,"[2]; most tobacco-addicted patients interested in ceasing, after 2-4 weeks",able to reduce their daily numbers of cigarettes smoked
same,caffeine addiction,[2]; patients consuming 8-12 daily coffees or caffeine soft drinks,drastically eliminate this dependence in only a few weeks
same,smoking cessation,"[2]; patients wishing to stop, small swigs through the day, after several weeks",all of these patients had ceased smoking
same,"blood cholesterol, tryglycerides and total lipid levels",[3],clear improvement
same,digestion problems,[4],almost total resolution of their digestion problems
same,reduction in % body fat,"[5]; 250 hypertension patients, 12 g/day",approximately 10%
same,mean time to attainment of recommended normal blood pressures,"[5]; 250 patients, 12 g/day (four daily 3 g doses)",2.8 months
same,erectile disfunction and other sexual performance problems,[6],significant diminishments of their problems
same,"number of patients reporting migraines, headaches and menstrual pains",[7],significant reduction
same,blood uric acid level after treatment,[8]; initial levels between 7.1 and 9.4 mg/100 mL,normal values
same,treatment time to normal uric acid values,[8]; usually,2-4 months
same,occurrence of ketosis under treatment,[9]; all patients under treatment,None of the patients under our treatment have suffered any kind of ketosis
same,blood ketone bodies in patients with signs of ketosis before treatment,[9]; relatively short time after beginning treatments,achieved normal blood concentration of ketone bodies
same,reduction of oral drugs and/or insulin injections,[10]; all diabetes patients,able to reduce to some degree their oral drugs and/or insulin injections
same,"glycosylated haemoglobin, cholesterol, tryglycerides and total lipids in blood analysis",[10]; diabetes patients,drastically reduced
same,reduction in glycosylated haemoglobin levels,"[10]; diabetes patients, over the duration of treatment",≥ 20%
same,time to change from insulin injections to oral diabetes drugs,[10]; most type-2 patients receiving insulin injections,1-2 months
same,"reduction in glycosylated haemoglobin level, single patient",[10]; patient Example 32 in Table 2,38.05%
same,onset of improvement in glycemia levels,[10]; two type-2 patients (FIGS. 6 and 7),clear from the first week of treatment
same,time to good control of glycemia and discontinuing diabetes medications,"[10]; two type-2 patients (FIGS. 6 and 7), diabetes for over 10 years",1-2 months
same,reduction in insulin dosages,"[10]; type-1 diabetes patients, over periods of 3-12 months",20-30%
